Data: article PMC3542813, “High-throughput screening with the Eimeria tenella CDC2-related kinase2/cyclin complex EtCRK2/EtCYC3a” (Microbiology, 2012)
Like-named read-outs stand apart in the source and are kept apart here.

Experiments:
EtCRK2/XlRINGO = EtCRK2/XlRINGO (Eimeria tenella, UniProt Q6R8F0); test: biochemical
Description: Therefore, we tested XlRINGO as an activator of EtCRK2.
(§1) In order to discover specific inhibitors of EtCRK2 we performed an in vitro screening campaign supported by an in silico hit enrichment (Fig. 4).

EtCRK2/EtCYC3a = EtCRK2/EtCYC3a (Eimeria tenella, UniProt Q6R8F0); test: TR-FRET kinase assay, EtCRK2 activated by EtCYC3a; format: biochemical
Description: as §1

HsCDK2/HsCYCA = HsCDK2/HsCYCA (Homo sapiens, UniProt P24941); test: TR-FRET kinase assay, human CDK2 activated by human cyclin A; format: biochemical; conditions: for IC50 / Ki: mean±SD, n = 3–6
EtCRK2 = test system: EtCRK2; design: method as in Engels et al., 2010; conditions: ref Engels et al., 2010, cited from earlier work
[1] = test system: E. tenella schizont development; design: method as in Engels et al., 2010; conditions: ref Engels et al., 2010, cited from earlier work
host cell = test system: host cell; design: method as in Engels et al., 2010; conditions: ref Engels et al., 2010; cited from earlier work
[2] = target: Eimeria tenella cyclin-like 3a (EtCYC3a), maltose binding protein fusion (Eimeria tenella)
[3] = standard CDK inhibitors, mean±SD, n = 3–6, read-out: IC50 EtCRK2/XlRINGO
[4] = standard CDK inhibitors, mean±SD, n = 3–6, read-out: Ki EtCRK2/XlRINGO
[5] = standard CDK inhibitors, mean±SD, n = 3–6, read-out: IC50 EtCRK2/EtCYC3a
[6] = standard CDK inhibitors, mean±SD, n = 3–6, read-out: Ki EtCRK2/EtCYC3a
[7] = lead structures, mean±SD, n = 3–6, read-out: IC50 EtCRK2/ XlRINGO
[8] = lead structures, mean±SD, n = 3–6, read-out: Ki EtCRK2/ XlRINGO
[9] = lead structures, mean±SD, n = 3–6, read-out: IC50 EtCRK2/ EtCYC3a
[10] = lead structures, mean±SD, n = 3–6, read-out: Ki EtCRK2/ ETCYC3a

With `NC1=NC(=O)/C(=C2\CCNC(=O)c3[nH]c(Br)cc32)N1` [10-Z-Hymendialdisine, (4Z)-4-(2-amino-4-oxo-1H-imidazol-5-ylidene)-2-bromo-1,5,6,7-tetrahydropyrrolo[2,3-c]azepin-8-one] as the molecule, how does the IC50 (EtCRK2/XlRINGO; [3]) read?
Its IC50 is 440 ± 80 nM.

And the Ki (EtCRK2/XlRINGO; [4])?
Its Ki is 50 ± 20 nM.

What about the IC50 (EtCRK2/EtCYC3a) of the same molecule?
Its IC50 is 930 ± 40 nM.

And the Ki (EtCRK2/EtCYC3a)?
Its Ki is 190 ± 10 nM.

What about the IC50 (HsCDK2/HsCYCA; standard CDK inhibitors) of the same molecule?
The IC50 was 120 ± 20 nM.

What about the Ki (HsCDK2/HsCYCA; standard CDK inhibitors) of the same molecule?
The Ki was 30 ± 1 nM.

With `O=C1Cc2c([nH]c3ccc([N+](=O)[O-])cc23)-c2ccccc2N1` [Alsterpaullone, 9-nitro-7,12-dihydro-5H-indolo[3,2-d][1]benzazepin-6-one] as the molecule, how does the IC50 (EtCRK2/XlRINGO; [3]) read?
Its IC50 is 220 ± 60 nM.

What about the Ki (EtCRK2/XlRINGO; [4]) of the same molecule?
Its Ki is 70 ± 2 nM.

And the IC50 (EtCRK2/EtCYC3a; [5])?
Its IC50 is 640 ± 340 nM.

What about the Ki (EtCRK2/EtCYC3a; [6]) of the same molecule?
The Ki was 210 ± 40 nM.

For `OC(CSc1ccccc1)CN1CCC(Nc2nccc(C(F)(F)F)n2)CC1` (centres unmarked) [BES124764, 1-phenylsulfanyl-3-[4-[[4-(trifluoromethyl)pyrimidin-2-yl]amino]-1-piperidyl]propane-2-ol], which IC50 (EtCRK2/XlRINGO; [7]) is on record?
Its IC50 is 18600 ± 3720 nM.

And the Ki (EtCRK2/XlRINGO; [8])?
The Ki was 4330 ± 920 nM.

And the IC50 (EtCRK2/EtCYC3a; [9])?
The IC50 was 7350 ± 1820 nM.

What about the Ki (EtCRK2/EtCYC3a; [10]) of the same molecule?
Its Ki is 3420 ± 1080 nM.

And the “times more active towards the two E. tenella complexes than towards the HsCDK2/HsCYCA complex” value (HsCDK2/HsCYCA; EtCRK2/XlRINGO and EtCRK2/EtCYC3a versus HsCDK2/HsCYCA)?
Its value is 25–30 times.

And the IC50 (HsCDK2/HsCYCA; lead structures)?
Its IC50 is over 200000 nM.

And the Ki (HsCDK2/HsCYCA; lead structures)?
The Ki was 95300 ± 19100 nM.

What about the “selectivity for EtCRK2 versus HsCDK2” value (HsCDK2/HsCYCA; result in words) of the same molecule?
The value was “selective for EtCRK2”.

Which results are given for `Cc1cc(O)c2c(c1O)C(=O)C(Cl)=C(Cl)C2=O` [BES130131, 2,3-dichloro-5,8-dihydroxy-6-methyl-naphthalene-1,4-dione]?
IC50 (EtCRK2/XlRINGO; [7]): 14800 ± 8410 nM; Ki (EtCRK2/XlRINGO; [8]): 5250 ± 200 nM; IC50 (EtCRK2/EtCYC3a; [9]): 18100 ± 1030 nM; Ki (EtCRK2/EtCYC3a; [10]): 6870 ± 1740 nM; IC50 (HsCDK2/HsCYCA; lead structures): 14400 ± 1520 nM; Ki (HsCDK2/HsCYCA; lead structures): 3350 ± 1060 nM

With `Nc1cc(S(=O)(=O)O)c2cccnc2c1O` [BES312351, 7-amino-8-hydroxy-quinoline-5-sulfonic acid hydrate] as the molecule, how does the IC50 (EtCRK2/XlRINGO; [7]) read?
The IC50 was 7130 ± 2490 nM.

And the Ki (EtCRK2/XlRINGO; [8])?
Its Ki is 940 ± 310 nM.

What about the IC50 (EtCRK2/EtCYC3a) of the same molecule?
Its IC50 is 6500 ± 2490 nM.

And the Ki (EtCRK2/EtCYC3a)?
The Ki was 4670 ± 2020 nM.

What about the IC50 (HsCDK2/HsCYCA; lead structures) of the same molecule?
The IC50 was 5160 ± 2850 nM.

What about the Ki (HsCDK2/HsCYCA; lead structures) of the same molecule?
The Ki was 780 ± 610 nM.

With `CN1CC[C@H](c2c(O)cc(O)c3c(=O)cc(-c4ccccc4Cl)oc23)[C@H](O)C1` [Flavopiridole, 2-(2-chlorophenyl)-5,7-dihydroxy-8-[(3S,4R)-3-hydroxy-1-methyl-4-piperidinyl]-4H-1-benzopyran-4-one] as the molecule, how does the IC50 (EtCRK2; read-out: IC50 EtCRK2 in enzyme assays) read?
The IC50 was 33 ± 10 nM.

And the Ki (EtCRK2; read-out: Ki EtCRK2 in enzyme assays)?
Its Ki is 11 ± 3 nM.

And the “inhibition of E. tenella schizont development” value ([1]; at concentrations of 150 and 300 nM)?
Its value is “fully inhibits”.

And the “inhibition of E. tenella schizont development” value ([1]; concentrations below 80 nm)?
Its value is “no inhibitory effects”.

What about the “concentrations at which host cell toxicity is observed” value (host cell) of the same molecule?
Its value is “above 600 nM”.

What does the source list for `O=C1Nc2ccc(S(=O)(=O)O)cc2/C1=C1/Nc2ccccc2C1=O` [Indirubin-5′-sulfonic acid, (3Z)-2-oxo-3-(3-oxo-1H-indol-2-ylidene)-1H-indole-5-sulfonic acid]?
IC50 (EtCRK2/XlRINGO; [3]): 670 ± 180 nM; Ki (EtCRK2/XlRINGO; [4]): 170 ± 30 nM; IC50 (EtCRK2/EtCYC3a; [5]): 940 ± 310 nM; Ki (EtCRK2/EtCYC3a; [6]): 240 ± 100 nM

For `CC(C)C(CO)Nc1nc(Nc2cccc(Cl)c2)c2ncn(C(C)C)c2n1` (centres unmarked) [Purvalanol A, 2-[[6-[(3-chlorophenyl)amino]-9-isopropyl-purin-2-yl]amino]-3-methyl-butan-1-ol], which IC50 (EtCRK2/XlRINGO) is on record?
Its IC50 is 800 ± 110 nM.

What about the Ki (EtCRK2/XlRINGO) of the same molecule?
Its Ki is 80 ± 10 nM.

What about the IC50 (EtCRK2/EtCYC3a; [5]) of the same molecule?
The IC50 was 1030 ± 180 nM.

And the Ki (EtCRK2/EtCYC3a; [6])?
The Ki was 360 ± 130 nM.

What about the IC50 (HsCDK2/HsCYCA; standard CDK inhibitors) of the same molecule?
The IC50 was 140 ± 40 nM.

And the Ki (HsCDK2/HsCYCA; standard CDK inhibitors)?
The Ki was 40 ± 1 nM.

With `CN[C@@H]1C[C@H]2O[C@@](C)([C@@H]1OC)n1c3ccccc3c3c4c(c5c6ccccc6n2c5c31)C(=O)NC4` [Staurosporine, (9S,10R,11R,13R)-2,3,10,11,12,13-hexahydro-10-methoxy-9-methyl-11-(methylamino)-9,13-epoxy-1H,9H-diindolo[1,2,3-gh:3′,2′,1′-lm]pyrrolo[3,4-j][1,7]benzodiazonin-1-one] as the molecule, how does the IC50 (EtCRK2/XlRINGO) read?
The IC50 was 90 ± 10 nM.

What about the Ki (EtCRK2/XlRINGO) of the same molecule?
Its Ki is 20 ± 10 nM.

And the IC50 (EtCRK2/EtCYC3a)?
The IC50 was 190 ± 90 nM.

What about the Ki (EtCRK2/EtCYC3a) of the same molecule?
The Ki was 530 ± 200 nM.

Which specific activity of EtCRK2 in the EtCRK2/EtCYC3a complex, TR-FRET kinase assay with fluorescein-labelled histone H1 substrate [2] does the source give for “Eimeria tenella CDC2-related kinase 2 (EtCRK2), His-tagged (enzyme)” here?
The specific activity of EtCRK2 in the EtCRK2/EtCYC3a complex, TR-FRET kinase assay with fluorescein-labelled histone H1 substrate was 0.15 µmol/min/mg.
